Test: storage stability / shelf life of sinoporphyrin sodium prepared by the method
Format: physicochemical
Conditions: sinoporphyrin sodium prepared by the disclosed method; storage conditions not given

- purity with the extension of storage time (storage stability): does not decrease significantly
- shelf life: more than 24 months
Structure (SMILES): C=Cc1c(C)c2cc3nc(cc4nc(cc5[nH]c(cc1[nH]2)c(C)c5C(C)OC(C)c1c(C)c2cc5[nH]c(cc6nc(cc7nc(cc1[nH]2)C(C)=C7CCC(=O)[O-])C(CCC(=O)[O-])=C6C)c(C)c5C=C)C(C)=C4CCC(=O)[O-])C(CCC(=O)[O-])=C3C.[Na+].[Na+].[Na+].[Na+] (centres unmarked) [sinoporphyrin sodium, bis[1-[6,7-dipropionatesodium salt-1,3,5,8-tetramethyl-2-vinyl-4-porphyrin]ethyl] ether]
